Reference: PubChem BioAssay AID2060485 (Molecular Pharmacology Branch, DTP, NCI, 2025)

Test system: A375 multi-cell spheroids with HUVEC/MSC, viability
Assay: Anticancer human tumor A375 cell line growth inhibition [GQUAD];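 note: spheroids exposed to compounds for seven days before readout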
Conditions: for IC50: curve of first compound; for viability, T/C: stronger effect = lower value
How it was run: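 Multi-cell-type spheroids of tumor cells with HUVEC and mesenchymal stem cells, treated with drug combinations. Concentrations descend in half-log steps from near clinical Cmax, or from 10 microM where Cmax is unknown; viability read-out.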

[1] = second compound 0.0316 µM, first compound 0.0316 µM
[2] = second compound 0.0316 µM, first compound 0.1 µM
[3] = second compound 0.0316 µM, first compound 0.316 µM
[4] = second compound 0.0316 µM, first compound 1 µM
[5] = second compound 0.0316 µM, first compound 3.16 µM
[6] = second compound 0.0316 µM, first compound 10 µM
[7] = second compound 0.1 µM, first compound 0.0316 µM
[8] = second compound 0.1 µM, first compound 0.1 µM
[9] = second compound 0.1 µM, first compound 0.316 µM
[10] = second compound 0.1 µM, first compound 1 µM
[11] = second compound 0.1 µM, first compound 3.16 µM
[12] = second compound 0.1 µM, first compound 10 µM
[13] = second compound 0.316 µM, first compound 0.0316 µM
[14] = second compound 0.316 µM, first compound 0.1 µM
[15] = second compound 0.316 µM, first compound 0.316 µM
[16] = second compound 0.316 µM, first compound 1 µM
[17] = second compound 0.316 µM, first compound 3.16 µM
[18] = second compound 0.316 µM, first compound 10 µM
[19] = second compound 1 µM, first compound 0.0316 µM
[20] = second compound 1 µM, first compound 0.1 µM
[21] = second compound 1 µM, first compound 0.316 µM
[22] = second compound 1 µM, first compound 1 µM
[23] = second compound 1 µM, first compound 3.16 µM
[24] = second compound 1 µM, first compound 10 µM
[25] = second compound 3.16 µM, first compound 0.0316 µM
[26] = second compound 3.16 µM, first compound 0.1 µM
[27] = second compound 3.16 µM, first compound 0.316 µM
[28] = second compound 3.16 µM, first compound 1 µM
[29] = second compound 3.16 µM, first compound 3.16 µM
[30] = second compound 3.16 µM, first compound 10 µM
[31] = second compound 10 µM, first compound 0.0316 µM
[32] = second compound 10 µM, first compound 0.1 µM
[33] = second compound 10 µM, first compound 0.316 µM
[34] = second compound 10 µM, first compound 1 µM
[35] = second compound 10 µM, first compound 3.16 µM
[36] = second compound 10 µM, first compound 10 µM

C#Cc1c(F)ccc2cc(O)cc(-c3ncc4c(N5CC6CCC(C5)N6)nc(OCC56CCCN5CC(F)C6)nc4c3F)c12 (stereo unspecified) + Cc1cnc(CNC(=O)c2c(=O)c3ccc(N4CCCN(C)CC4)nc3n3c2sc2ccccc23)cn1
IC50 (second compound 0.0316 µM): > 10000 nM | IC50 (second compound 0.1 µM): > 10000 nM | IC50 (second compound 0.316 µM): > 10000 nM | IC50 (second compound 1 µM): < 31.6 nM | IC50 (second compound 3.16 µM): < 31.6 nM | IC50 (second compound 10 µM): < 31.6 nM | viability, T/C [1]: 106% | viability, T/C [2]: 109% | viability, T/C [3]: 121% | viability, T/C [4]: 120% | viability, T/C [5]: 117% | viability, T/C [6]: 117% | viability, T/C [7]: 79% | viability, T/C [8]: 74.6% | viability, T/C [9]: 93.8% | viability, T/C [10]: 85.1% | viability, T/C [11]: 88.3% | viability, T/C [12]: 96% | viability, T/C [13]: 59.1% | viability, T/C [14]: 51.8% | viability, T/C [15]: 64.3% | viability, T/C [16]: 55.1% | viability, T/C [17]: 58.6% | viability, T/C [18]: 47.9% | viability, T/C [19]: 42.6% | viability, T/C [20]: 42.6% | viability, T/C [21]: 39.4% | viability, T/C [22]: 40% | viability, T/C [23]: 37.4% | viability, T/C [24]: 38.8% | viability, T/C [25]: 40.6% | viability, T/C [26]: 36.9% | viability, T/C [27]: 36.6% | viability, T/C [28]: 34.7% | viability, T/C [29]: 36.3% | viability, T/C [30]: 33.7% | viability, T/C [31]: 25.7% | viability, T/C [32]: 28.3% | viability, T/C [33]: 33.2% | viability, T/C [34]: 34% | viability, T/C [35]: 33.2% | viability, T/C [36]: 32.3%

C=CCn1c(=O)c2cnc(Nc3ccc(N4CCN(C)CC4)cc3)nc2n1-c1cccc(C(C)(C)O)n1 + Cc1cnc(CNC(=O)c2c(=O)c3ccc(N4CCCN(C)CC4)nc3n3c2sc2ccccc23)cn1
IC50 (second compound 0.0316 µM): 900 nM | IC50 (second compound 0.1 µM): 408 nM | IC50 (second compound 0.316 µM): 96.7 nM | IC50 (second compound 1 µM): < 31.6 nM | IC50 (second compound 3.16 µM): < 31.6 nM | IC50 (second compound 10 µM): < 31.6 nM | viability, T/C [1]: 93.1% | viability, T/C [2]: 95.3% | viability, T/C [3]: 81% | viability, T/C [4]: 48.3% | viability, T/C [5]: 12.3% | viability, T/C [6]: 9.5% | viability, T/C [7]: 70.2% | viability, T/C [8]: 69.7% | viability, T/C [9]: 50.6% | viability, T/C [10]: 38% | viability, T/C [11]: 15.1% | viability, T/C [12]: 9.57% | viability, T/C [13]: 57.6% | viability, T/C [14]: 50.6% | viability, T/C [15]: 36.7% | viability, T/C [16]: 28.1% | viability, T/C [17]: 14.9% | viability, T/C [18]: 10.7% | viability, T/C [19]: 37.1% | viability, T/C [20]: 33.7% | viability, T/C [21]: 31.6% | viability, T/C [22]: 25.3% | viability, T/C [23]: 16.1% | viability, T/C [24]: 11.4% | viability, T/C [25]: 32% | viability, T/C [26]: 33.6% | viability, T/C [27]: 27.2% | viability, T/C [28]: 25.7% | viability, T/C [29]: 17% | viability, T/C [30]: 12% | viability, T/C [31]: 28.8% | viability, T/C [32]: 28.9% | viability, T/C [33]: 26.8% | viability, T/C [34]: 21.6% | viability, T/C [35]: 16.8% | viability, T/C [36]: 13.8%

COc1ncnc(C2CC2)c1-c1ncc2cnn(Cc3ccc(-c4nc(C(F)(F)F)cn4C(C)C)cc3)c2n1 + Cc1cnc(CNC(=O)c2c(=O)c3ccc(N4CCCN(C)CC4)nc3n3c2sc2ccccc23)cn1
IC50 (second compound 0.0316 µM): > 10000 nM | IC50 (second compound 0.1 µM): > 10000 nM | IC50 (second compound 0.316 µM): < 31.6 nM | IC50 (second compound 1 µM): < 31.6 nM | IC50 (second compound 3.16 µM): < 31.6 nM | IC50 (second compound 10 µM): < 31.6 nM | viability, T/C [1]: 101% | viability, T/C [2]: 110% | viability, T/C [3]: 102% | viability, T/C [4]: 103% | viability, T/C [5]: 104% | viability, T/C [6]: 111% | viability, T/C [7]: 69.3% | viability, T/C [8]: 73.5% | viability, T/C [9]: 57.3% | viability, T/C [10]: 61.4% | viability, T/C [11]: 70.3% | viability, T/C [12]: 61.2% | viability, T/C [13]: 49.3% | viability, T/C [14]: 43.6% | viability, T/C [15]: 47.1% | viability, T/C [16]: 49% | viability, T/C [17]: 46.2% | viability, T/C [18]: 47.7% | viability, T/C [19]: 36.2% | viability, T/C [20]: 35% | viability, T/C [21]: 34.5% | viability, T/C [22]: 38.5% | viability, T/C [23]: 33.5% | viability, T/C [24]: 33.5% | viability, T/C [25]: 29.6% | viability, T/C [26]: 37.2% | viability, T/C [27]: 30.9% | viability, T/C [28]: 33.5% | viability, T/C [29]: 31.7% | viability, T/C [30]: 33.9% | viability, T/C [31]: 30% | viability, T/C [32]: 26% | viability, T/C [33]: 27.6% | viability, T/C [34]: 26.4% | viability, T/C [35]: 32.7% | viability, T/C [36]: 31.9%
